Biological target: T1, bovine eNOS (Bos taurus, UniProt P29473)
T1 construct: Full-length recombinant rat nNOS, mouse iNOS, bovine eNOS; made in house; host or cells: Escherichia coli
Experiment: NOS inhibition, oxyhemoglobin (hemoglobin capture) test, recombinant eNOS
Assay type: biochemical
Conditions: 1,2,4-oxadiazole series; recombinant enzyme, 10 µM arginine, triplicate; NI = <50% inhibition at 100 μM
Experimental: The inhibitory effects of all compounds against the three recombinant NOSs (rat nNOS, mouse iNOS, and bovine eNOS) were evaluated in 96-well plates using the oxyhemoglobin test [53].
NOS catalytic activity was measured using the hemoglobin capture assay [53]. The test was performed at 30 °C in 96-well microplates using a final volume of 200 µL. The assay mixture contained 100 µM NADPH, 10 µM BH4, 6 µM HbO2, 100 µM DTT, 5 µM FAD, 5 µM FMN, 10 µM (nNOS and eNOS), or 20 µM (iNOS) arginine, all in a 100 mM Hepes buffer, pH 7.5, and, for constitutive n- and e-NOS, 10 µg/mL calmodulin, and 1 mM CaCl2. The studied compounds were introduced as 2 μL of ×100 concentrated solutions in DMSO, and the control experiments were performed with DMSO or the buffer only. The kinetics of NO production were measured at 401 nm using an Infinite F500 microplate reader (Tecan, Singapore).

T1 sequence (P29473 whole entry): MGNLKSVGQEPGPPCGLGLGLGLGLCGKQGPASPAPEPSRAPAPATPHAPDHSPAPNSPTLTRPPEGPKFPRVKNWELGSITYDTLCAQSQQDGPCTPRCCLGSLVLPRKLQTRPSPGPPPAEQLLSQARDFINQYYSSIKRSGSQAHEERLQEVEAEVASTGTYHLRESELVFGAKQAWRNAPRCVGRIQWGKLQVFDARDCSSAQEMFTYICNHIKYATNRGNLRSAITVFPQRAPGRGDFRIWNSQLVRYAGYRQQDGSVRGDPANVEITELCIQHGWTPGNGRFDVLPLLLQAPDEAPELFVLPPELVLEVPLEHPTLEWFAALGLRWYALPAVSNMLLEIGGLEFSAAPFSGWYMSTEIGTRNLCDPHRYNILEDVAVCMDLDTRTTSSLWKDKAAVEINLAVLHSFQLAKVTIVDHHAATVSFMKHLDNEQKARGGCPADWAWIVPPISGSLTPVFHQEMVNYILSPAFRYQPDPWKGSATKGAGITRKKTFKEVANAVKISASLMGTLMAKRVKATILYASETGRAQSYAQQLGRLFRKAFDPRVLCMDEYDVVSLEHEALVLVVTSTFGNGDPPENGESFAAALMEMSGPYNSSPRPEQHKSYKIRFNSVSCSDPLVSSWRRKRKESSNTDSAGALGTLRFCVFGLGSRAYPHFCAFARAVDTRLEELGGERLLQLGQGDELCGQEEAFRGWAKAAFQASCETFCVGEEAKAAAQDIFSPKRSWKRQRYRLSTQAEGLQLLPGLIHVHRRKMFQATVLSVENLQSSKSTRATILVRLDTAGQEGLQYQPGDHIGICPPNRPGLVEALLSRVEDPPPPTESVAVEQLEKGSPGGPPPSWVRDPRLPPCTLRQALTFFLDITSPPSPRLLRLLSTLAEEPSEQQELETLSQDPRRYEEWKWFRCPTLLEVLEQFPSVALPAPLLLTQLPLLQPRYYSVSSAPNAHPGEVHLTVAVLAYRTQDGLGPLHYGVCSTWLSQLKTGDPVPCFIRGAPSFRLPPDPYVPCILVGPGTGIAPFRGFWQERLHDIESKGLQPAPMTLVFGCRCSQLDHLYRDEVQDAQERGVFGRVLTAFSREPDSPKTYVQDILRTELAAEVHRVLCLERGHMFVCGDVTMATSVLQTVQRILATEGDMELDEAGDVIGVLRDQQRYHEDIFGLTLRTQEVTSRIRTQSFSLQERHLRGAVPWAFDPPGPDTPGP

Structure (SMILES) | IC50 [µM]
CCSC(=N)NCCC[C@H](N)c1nc(CCNCc2ccccc2)no1 [Compound 29] | 17.9
CCSC(=N)NCCC[C@H](N)c1nc(CCN(Cc2ccccc2)Cc2ccccc2)no1 [Compound 30] | 99.6
CCSC(=N)NCCC[C@H](N)c1nc(CCN(Cc2ccccc2O)Cc2ccccc2O)no1 [Compound 36] | 20.2
CCSC(=N)NCCC[C@H](N)c1nc(CCN(Cc2ccc([N+](=O)[O-])cc2)Cc2ccc([N+](=O)[O-])cc2)no1 [Compound 37] | 11.8
CCSC(=N)NCCC[C@H](N)c1nc(CCN(Cc2cccc([N+](=O)[O-])c2)Cc2cccc([N+](=O)[O-])c2)no1 [Compound 38] | 3.9
CCSC(=N)NCCC[C@H](N)c1nc(CCNCc2ccccc2[N+](=O)[O-])no1 [Compound 39] | 48.2

Same assay, conditions: 1,2,4-oxadiazole series; recombinant enzyme, 10 µM arginine, triplicate; NI = <50% inhibition at 100 μM; read-out: IC50 (μM) eNOS (Bovine)

Structure (SMILES) | inhibition at 100 µM [%]
CCSC(=N)NCCC[C@H](N)c1nc(CCN)no1 [Compound 28] | < 50
CCSC(=N)NCCC[C@H](N)c1nc(CCN(Cc2ccccc2C)Cc2ccccc2C)no1 [Compound 31] | < 50
CCSC(=N)NCCC[C@H](N)c1nc(CCN(Cc2c(C)cccc2C)Cc2c(C)cccc2C)no1 [Compound 33] | < 50
CCSC(=N)NCCC[C@H](N)c1nc(CCN(Cc2cccc3ccccc23)Cc2cccc3ccccc23)no1 [Compound 34] | < 50
CCSC(=N)NCCC[C@H](N)c1nc(CCN(Cc2cc(O)ccc2[N+](=O)[O-])Cc2cc(O)ccc2[N+](=O)[O-])no1 [Compound 42] | < 50

Same assay, conditions: dipeptide-like series; recombinant enzyme, 10 µM arginine, triplicate; NI = <50% inhibition at 100 μM

Structure (SMILES) | IC50 [µM]
CCSC(=N)NCCC[C@H](N)C(=O)N[C@H]1CCCN(Cc2cc(O)ccc2O)C1 [Compound 10] | 26.7

Biological target: T2, mouse iNOS (Mus musculus, UniProt P29477)
T2 construct: Full-length recombinant rat nNOS, mouse iNOS, bovine eNOS; made in house; host or cells: Escherichia coli
T2 sequence (P29477 1-1144): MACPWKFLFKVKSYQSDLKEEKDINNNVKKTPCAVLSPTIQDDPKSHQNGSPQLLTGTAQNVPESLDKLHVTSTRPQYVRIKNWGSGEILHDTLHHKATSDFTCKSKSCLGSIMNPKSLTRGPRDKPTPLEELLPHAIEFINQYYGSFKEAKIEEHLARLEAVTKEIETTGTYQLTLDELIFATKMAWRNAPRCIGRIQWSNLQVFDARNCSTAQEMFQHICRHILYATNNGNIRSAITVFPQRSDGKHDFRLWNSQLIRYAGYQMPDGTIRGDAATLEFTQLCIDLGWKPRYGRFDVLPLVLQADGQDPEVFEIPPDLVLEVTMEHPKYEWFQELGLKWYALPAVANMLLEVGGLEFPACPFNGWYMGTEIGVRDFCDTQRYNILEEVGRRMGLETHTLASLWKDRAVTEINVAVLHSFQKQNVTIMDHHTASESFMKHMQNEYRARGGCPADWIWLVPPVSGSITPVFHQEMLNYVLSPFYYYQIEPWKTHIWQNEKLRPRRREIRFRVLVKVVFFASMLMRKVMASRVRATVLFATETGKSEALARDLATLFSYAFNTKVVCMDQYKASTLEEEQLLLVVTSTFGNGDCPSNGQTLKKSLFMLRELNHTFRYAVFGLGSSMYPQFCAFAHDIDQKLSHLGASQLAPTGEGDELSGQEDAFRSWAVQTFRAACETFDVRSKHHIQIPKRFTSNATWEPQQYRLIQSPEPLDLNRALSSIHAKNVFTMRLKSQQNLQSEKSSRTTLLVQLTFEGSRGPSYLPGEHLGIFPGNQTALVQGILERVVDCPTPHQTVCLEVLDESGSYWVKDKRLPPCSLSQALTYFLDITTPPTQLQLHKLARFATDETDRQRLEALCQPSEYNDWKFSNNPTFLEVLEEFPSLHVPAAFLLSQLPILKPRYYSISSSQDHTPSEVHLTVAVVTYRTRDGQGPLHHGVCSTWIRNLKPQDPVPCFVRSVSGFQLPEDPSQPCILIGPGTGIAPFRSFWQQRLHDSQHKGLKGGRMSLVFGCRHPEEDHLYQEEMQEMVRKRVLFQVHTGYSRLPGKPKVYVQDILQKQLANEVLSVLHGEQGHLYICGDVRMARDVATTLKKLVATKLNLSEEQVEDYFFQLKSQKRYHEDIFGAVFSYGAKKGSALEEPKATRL
Experiment: NOS inhibition, oxyhemoglobin (hemoglobin capture) test, recombinant iNOS
Assay type: biochemical
Conditions: 1,2,4-oxadiazole series; recombinant enzyme, 20 µM arginine, triplicate; NI = <50% inhibition at 100 μM
Experimental: (§1) The inhibitory effects of all compounds against the three recombinant NOSs (rat nNOS, mouse iNOS, and bovine eNOS) were evaluated in 96-well plates using the oxyhemoglobin test. A first screening at 100 and 10 μM was performed, and the IC50 values were measured for compounds showing more than 50% inhibition at 100 μM (Table 1 and Table 2).
(§2) Full-length recombinant rat nNOS, mouse iNOS, bovine eNOS, and the heme domains of rat brain nNOS and mouse iNOS were expressed in Escherichia coli and purified as described previously.
(§3) NOS catalytic activity was measured using the hemoglobin capture assay. The test was performed at 30 °C in 96-well microplates using a final volume of 200 µL. The assay mixture contained 100 µM NADPH, 10 µM BH4, 6 µM HbO2, 100 µM DTT, 5 µM FAD, 5 µM FMN, 10 µM (nNOS and eNOS), or 20 µM (iNOS) arginine, all in a 100 mM Hepes buffer, pH 7.5, and, for constitutive n- and e-NOS, 10 µg/mL calmodulin, and 1 mM CaCl2. The studied compounds were introduced as 2 μL of ×100 concentrated solutions in DMSO, and the control experiments were performed with DMSO or the buffer only. The kinetics of NO production were measured at 401 nm using an Infinite F500 microplate reader (Tecan, Singapore).

Structure (SMILES) | IC50 [µM]
CCSC(=N)NCCC[C@H](N)c1nc(CCN)no1 [Compound 28] | 83.7
CCSC(=N)NCCC[C@H](N)c1nc(CCNCc2ccccc2)no1 [Compound 29] | 11.1
CCSC(=N)NCCC[C@H](N)c1nc(CCN(Cc2ccccc2)Cc2ccccc2)no1 [Compound 30] | 1.3
CCSC(=N)NCCC[C@H](N)c1nc(CCN(Cc2ccccc2C)Cc2ccccc2C)no1 [Compound 31] | 11.1
CCSC(=N)NCCC[C@H](N)c1nc(CCN(Cc2c(C)cccc2C)Cc2c(C)cccc2C)no1 [Compound 33] | 71.5
CCSC(=N)NCCC[C@H](N)c1nc(CCN(Cc2cccc3ccccc23)Cc2cccc3ccccc23)no1 [Compound 34] | 4
CCSC(=N)NCCC[C@H](N)c1nc(CCN(Cc2ccccc2O)Cc2ccccc2O)no1 [Compound 36] | 24.3
CCSC(=N)NCCC[C@H](N)c1nc(CCN(Cc2ccc([N+](=O)[O-])cc2)Cc2ccc([N+](=O)[O-])cc2)no1 [Compound 37] | 15.8
CCSC(=N)NCCC[C@H](N)c1nc(CCN(Cc2cccc([N+](=O)[O-])c2)Cc2cccc([N+](=O)[O-])c2)no1 [Compound 38] | 15.9
CCSC(=N)NCCC[C@H](N)c1nc(CCNCc2ccccc2[N+](=O)[O-])no1 [Compound 39] | 8
CCSC(=N)NCCC[C@H](N)c1nc(CCN(Cc2cc(O)ccc2[N+](=O)[O-])Cc2cc(O)ccc2[N+](=O)[O-])no1 [Compound 42] | 7

Same assay, conditions: dipeptide-like series; recombinant enzyme, 20 µM arginine, triplicate; NI = <50% inhibition at 100 μM

Structure (SMILES) | IC50 [µM]
CCSC(=N)NCCC[C@H](N)C(=O)N[C@H]1CCCN(Cc2cc(O)ccc2O)C1 [Compound 10] | 23.9

Test system: RAW 264.7 cells
Experiment: Cell viability, MTT assay
Assay type: cell-based, murine
Conditions: RAW 264.7, absence of LPS, 500 μM
Experimental: Cell viability was evaluated in the murine macrophage RAW 264.7 cells using an MTT assay for compounds 18, 21, 26, and 30. This experiment was performed without or with LPS (1 µg/mL), which induces iNOS expression (Figure S1). […] Compound 30 only killed 20% of the cells at 500 μM (Figure S1A). In the presence of LPS (1 µg/mL), cell viability was reduced by 30% due to the inhibition by NO of key enzymes involved in cell metabolism (Figure S1B).
The macrophage cell line RAW 264.7 (a gift from Dr. A. Blangy, Montpellier, France) was cultured in Dulbecco’s Modified Eagle’s Medium (DMEM) supplemented with 10% FCS, 100 units/mL penicillin, 100 µg/mL streptomycin, and 2 mM L-glutamine.
Cellular NO production was measured using the Griess reagent (Sigma-Aldrich), which evaluates the nitrite content in culture media. Cellular toxicity was estimated by the MTT assay (Sigma-Aldrich) in RAW 264.7 cells after the induction (or not) of iNOS by LPS, according to the manufacturer’s recommendations.

Structure (SMILES) | Cells killed [%]
CCSC(=N)NCCC[C@H](N)c1nc(CCN(Cc2ccccc2)Cc2ccccc2)no1 [Compound 30] | 20

Same assay, conditions: RAW 264.7, absence of LPS, up to 100 μM

Structure (SMILES) | Effect on cell viability (MTT)
CCSC(=N)NCCC[C@H](N)c1nc(CCN(Cc2ccccc2)Cc2ccccc2)no1 [Compound 30] | did not modify cell viability

Biological target: T3, rat nNOS (Rattus norvegicus, UniProt P29476)
T3 construct: Full-length recombinant rat nNOS, mouse iNOS, bovine eNOS; made in house; host or cells: Escherichia coli
T3 sequence (P29476 whole entry): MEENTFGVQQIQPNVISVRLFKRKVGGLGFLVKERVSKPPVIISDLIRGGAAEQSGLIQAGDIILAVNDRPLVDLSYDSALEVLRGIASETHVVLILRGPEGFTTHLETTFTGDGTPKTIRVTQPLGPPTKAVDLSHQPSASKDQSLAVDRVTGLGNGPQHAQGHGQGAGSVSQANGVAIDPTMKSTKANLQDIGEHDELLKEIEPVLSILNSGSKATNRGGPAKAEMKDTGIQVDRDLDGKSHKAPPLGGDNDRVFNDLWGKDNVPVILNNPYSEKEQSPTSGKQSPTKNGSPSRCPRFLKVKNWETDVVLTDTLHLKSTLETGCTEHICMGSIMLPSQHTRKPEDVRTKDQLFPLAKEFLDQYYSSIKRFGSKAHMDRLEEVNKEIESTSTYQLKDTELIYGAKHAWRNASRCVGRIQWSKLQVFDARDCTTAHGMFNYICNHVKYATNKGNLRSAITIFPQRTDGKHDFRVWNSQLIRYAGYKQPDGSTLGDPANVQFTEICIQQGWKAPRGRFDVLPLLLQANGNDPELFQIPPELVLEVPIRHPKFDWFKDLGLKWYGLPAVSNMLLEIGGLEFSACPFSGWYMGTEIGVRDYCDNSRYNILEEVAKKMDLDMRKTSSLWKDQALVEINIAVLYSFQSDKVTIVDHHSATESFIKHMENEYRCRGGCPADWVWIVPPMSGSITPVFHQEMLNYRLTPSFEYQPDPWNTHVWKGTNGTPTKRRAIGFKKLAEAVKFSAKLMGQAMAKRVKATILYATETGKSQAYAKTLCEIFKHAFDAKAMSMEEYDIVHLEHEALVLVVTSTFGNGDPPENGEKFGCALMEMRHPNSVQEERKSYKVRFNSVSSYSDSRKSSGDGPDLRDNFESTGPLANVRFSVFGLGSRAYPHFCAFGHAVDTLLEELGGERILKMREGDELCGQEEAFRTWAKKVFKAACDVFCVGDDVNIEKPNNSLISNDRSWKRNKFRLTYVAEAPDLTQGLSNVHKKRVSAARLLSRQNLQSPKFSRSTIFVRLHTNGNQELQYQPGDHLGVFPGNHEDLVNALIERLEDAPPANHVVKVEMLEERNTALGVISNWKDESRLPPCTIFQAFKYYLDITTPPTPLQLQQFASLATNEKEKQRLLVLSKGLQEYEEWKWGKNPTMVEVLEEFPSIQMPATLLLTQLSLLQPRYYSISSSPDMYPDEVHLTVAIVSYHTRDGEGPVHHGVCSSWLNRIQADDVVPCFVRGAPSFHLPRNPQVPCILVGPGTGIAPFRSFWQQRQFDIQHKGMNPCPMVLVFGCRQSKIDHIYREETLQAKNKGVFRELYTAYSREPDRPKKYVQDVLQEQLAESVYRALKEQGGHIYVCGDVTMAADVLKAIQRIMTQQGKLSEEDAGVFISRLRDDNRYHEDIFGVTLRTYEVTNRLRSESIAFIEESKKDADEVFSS
Experiment: NOS inhibition, oxyhemoglobin (hemoglobin capture) test, recombinant nNOS
Assay type: biochemical
Conditions: 1,2,4-oxadiazole series; recombinant enzyme, 10 µM arginine, triplicate; NI = <50% inhibition at 100 μM
Experimental: as §1, §2, §3

Structure (SMILES) | IC50 [µM]
CCSC(=N)NCCC[C@H](N)c1nc(CCN)no1 [Compound 28] | 58.9
CCSC(=N)NCCC[C@H](N)c1nc(CCNCc2ccccc2)no1 [Compound 29] | 13.4
CCSC(=N)NCCC[C@H](N)c1nc(CCN(Cc2ccccc2)Cc2ccccc2)no1 [Compound 30] | 1.6
CCSC(=N)NCCC[C@H](N)c1nc(CCN(Cc2ccccc2C)Cc2ccccc2C)no1 [Compound 31] | 9.9
CCSC(=N)NCCC[C@H](N)c1nc(CCN(Cc2c(C)cccc2C)Cc2c(C)cccc2C)no1 [Compound 33] | 10.1
CCSC(=N)NCCC[C@H](N)c1nc(CCN(Cc2cccc3ccccc23)Cc2cccc3ccccc23)no1 [Compound 34] | 1.4
CCSC(=N)NCCC[C@H](N)c1nc(CCN(Cc2ccccc2O)Cc2ccccc2O)no1 [Compound 36] | 3.1
CCSC(=N)NCCC[C@H](N)c1nc(CCN(Cc2ccc([N+](=O)[O-])cc2)Cc2ccc([N+](=O)[O-])cc2)no1 [Compound 37] | 0.3
CCSC(=N)NCCC[C@H](N)c1nc(CCN(Cc2cccc([N+](=O)[O-])c2)Cc2cccc([N+](=O)[O-])c2)no1 [Compound 38] | 0.6
CCSC(=N)NCCC[C@H](N)c1nc(CCNCc2ccccc2[N+](=O)[O-])no1 [Compound 39] | 27
CCSC(=N)NCCC[C@H](N)c1nc(CCN(Cc2cc(O)ccc2[N+](=O)[O-])Cc2cc(O)ccc2[N+](=O)[O-])no1 [Compound 42] | 1.1

Same assay, conditions: dipeptide-like series; recombinant enzyme, 10 µM arginine, triplicate; NI = <50% inhibition at 100 μM

Structure (SMILES) | IC50 [µM]
CCSC(=N)NCCC[C@H](N)C(=O)N[C@H]1CCCN(Cc2cc(O)ccc2O)C1 [Compound 10] | 2

Same assay, conditions: from IC50 values

Structure (SMILES) | Selectivity for nNOS against eNOS [fold] | Selectivity for nNOS against iNOS [fold]
CCSC(=N)NCCC[C@H](N)c1nc(CCN(Cc2ccc([N+](=O)[O-])cc2)Cc2ccc([N+](=O)[O-])cc2)no1 [Compound 37] | ~40 | ~50

Same assay, conditions: times more potent than 28

Structure (SMILES) | Gain in nNOS inhibition potency over non-substituted compound 28
CCSC(=N)NCCC[C@H](N)c1nc(CCN(Cc2ccc([N+](=O)[O-])cc2)Cc2ccc([N+](=O)[O-])cc2)no1 [Compound 37] | 200

Source: paper PMC10343299, “S-Ethyl-Isothiocitrullin-Based Dipeptides and 1,2,4-Oxadiazole Pseudo-Dipeptides: Solid Phase Synthesis and Evaluation as NO Synthase Inhibitors” (Molecules, 2023)
